# Laboratory results: publication PMC10447267, “Assessment of the potential of the MET inhibitor tepotinib to affect the pharmacokinetics of CYP3A4 and P-gp substrates” (Investigational New Drugs, 2023)
# Where two headings read alike, the source gives them in different places.
# How the values were obtained:
# CYP2C19 = target: T1, CYP2C19 (Homo sapiens, UniProt P33261); assay: CYP2C19 inhibition in pooled human liver microsomes; format: in vitro ADME; conditions: for inhibition at 49.5 µM: both sexes, human, pooled human liver microsomes, probe S-mephenytoin (4-hydroxylation)
# T1 construct: pooled mixed-gender human liver microsomes; from tissue; host or cells: pooled mixed-gender human liver microsomes
# Procedure: (§1) The potential of tepotinib and MSC2571109A to inhibit CYP450 enzymes CYP1A2, 2A6, 2B6, 2C8, 2C9, 2C19, 2D6, 2E1, and 3A4/5 in vitro was evaluated using CYP-catalyzed reactions in pooled mixed-gender human liver microsomes using specific substrates and liquid chromatography/tandem mass spectrometry (LC–MS/MS) readouts. […] Testosterone 6β-hydroxylation was assessed in the MSC2571109A study. Assessments of mechanism-based inhibition of the above listed CYP450 enzymes were conducted after pre-incubation of the microsomes with tepotinib or MSC2571109A. A brief summary of the incubation methods, including details of substrates used for the other CYP enzymes (which are not pertinent to this article) are presented in Online Resource 1. The LC–MS/MS-based methods used were consistent with those previously described in the literature.
# CYP3A4/5 [1] = assay: CYP3A4/5 inhibition in pooled human liver microsomes; format: in vitro ADME; conditions: for inhibition at 49.5 µM / IC50: human, microsomes
# Procedure: as §1, with “Testosterone 6β-hydroxylation was assessed in the MSC2571109A study.” left out
# CYP3A4/5 [2] = format: in vitro ADME, human
# Procedure: In vitro studies in primary human hepatocyte cultures were conducted to assess the potential of tepotinib to induce human CYP1A1/2, 2B6 and 3A4/5 activity, the latter based on testosterone 6β-hydroxylation reactions (Online Resource 2). […] The studies included positive (rifampin) and vehicle (DMSO) controls. A negative control (flumazenil) was also included in the mRNA studies. The study designs, test systems and selection of prototypical inducers used in these studies were consistent with PhRMA, FDA and EMA guidelines.
# P-gp [3] = target: T2, P-gp (Homo sapiens, UniProt P08183); assay: Study 2 (NCT03492437): effect of tepotinib on dabigatran pharmacokinetics in healthy participants; format: in vivo; conditions: clinical; tepotinib 500 mg QD
# Procedure: Study 1 (NCT03628339) and Study 2 (NCT03492437) were both Phase 1, open-label, single sequence, 2-period studies in 12 and 20 healthy participants, respectively (Fig. 1).
# In Period 2 (Days 4 to 14), participants received 500 mg tepotinib QD on Days 4 to 11. […] Blood samples for trough concentrations of tepotinib were collected on Days 9 and 10. Further blood samples for tepotinib and its metabolites were also collected up to 24 h postdose on Day 10.
# Parameters included maximum plasma concentration (Cmax) and time to reach Cmax (Tmax) taken directly from the observed data. Area under the plasma concentration–time curve (AUC) from time 0 to the last measured concentration (AUC0-t), AUC over the dose interval (AUCtau) and AUC extrapolated to infinity (AUC0-∞) were calculated using the mixed log/linear trapezoidal rule. Terminal elimination half-life (t1/2) was calculated as ln(2)/λz where λz is the terminal rate constant. The primary pharmacokinetic parameters in both studies were Cmax, AUC0-t and AUC0-∞.
# A similar statistical approach was taken for both studies. […] Point estimates and CIs were back-transformed to the original scale.
# [4] = Tepotinib steady-state pharmacokinetics at the clinical dose; conditions: human, in vivo, oral, 500 mg
# P-gp [5] = target: T2, P-gp; assay: P-gp inhibition in Caco-2 cell monolayers with [3H]-digoxin; format: in vitro ADME; design: An in vitro assay in Caco-2 cell monolayers; endogenous in cells; host or cells: Caco-2
# Procedure: An in vitro assay in Caco-2 cell monolayers was performed to assess the P-gp inhibition potential of tepotinib (Online Resource 4). [^3H]-digoxin was used as a P-gp probe substrate. Control experiments were conducted to ensure acceptable performance of the cells. The extent of inhibition in these studies, expressed as IC50, was determined by quantification of the transport or uptake of ^3H-digoxin in Caco-2 cells in the absence and presence of tepotinib.
# To assess the potential clinical risk and to identify whether an in vivo DDI study was required, drug concentration ([I])/IC50 ratios and/or R-values were calculated considering the mean human steady state exposure of parent drug and its metabolite, observed at the clinical dose of 500 mg tepotinib. Results were assessed according to both FDA and EMA criteria.
# [6] = P-gp, clinical dose of 500 mg once daily
# T2 sequence (P08183 whole entry): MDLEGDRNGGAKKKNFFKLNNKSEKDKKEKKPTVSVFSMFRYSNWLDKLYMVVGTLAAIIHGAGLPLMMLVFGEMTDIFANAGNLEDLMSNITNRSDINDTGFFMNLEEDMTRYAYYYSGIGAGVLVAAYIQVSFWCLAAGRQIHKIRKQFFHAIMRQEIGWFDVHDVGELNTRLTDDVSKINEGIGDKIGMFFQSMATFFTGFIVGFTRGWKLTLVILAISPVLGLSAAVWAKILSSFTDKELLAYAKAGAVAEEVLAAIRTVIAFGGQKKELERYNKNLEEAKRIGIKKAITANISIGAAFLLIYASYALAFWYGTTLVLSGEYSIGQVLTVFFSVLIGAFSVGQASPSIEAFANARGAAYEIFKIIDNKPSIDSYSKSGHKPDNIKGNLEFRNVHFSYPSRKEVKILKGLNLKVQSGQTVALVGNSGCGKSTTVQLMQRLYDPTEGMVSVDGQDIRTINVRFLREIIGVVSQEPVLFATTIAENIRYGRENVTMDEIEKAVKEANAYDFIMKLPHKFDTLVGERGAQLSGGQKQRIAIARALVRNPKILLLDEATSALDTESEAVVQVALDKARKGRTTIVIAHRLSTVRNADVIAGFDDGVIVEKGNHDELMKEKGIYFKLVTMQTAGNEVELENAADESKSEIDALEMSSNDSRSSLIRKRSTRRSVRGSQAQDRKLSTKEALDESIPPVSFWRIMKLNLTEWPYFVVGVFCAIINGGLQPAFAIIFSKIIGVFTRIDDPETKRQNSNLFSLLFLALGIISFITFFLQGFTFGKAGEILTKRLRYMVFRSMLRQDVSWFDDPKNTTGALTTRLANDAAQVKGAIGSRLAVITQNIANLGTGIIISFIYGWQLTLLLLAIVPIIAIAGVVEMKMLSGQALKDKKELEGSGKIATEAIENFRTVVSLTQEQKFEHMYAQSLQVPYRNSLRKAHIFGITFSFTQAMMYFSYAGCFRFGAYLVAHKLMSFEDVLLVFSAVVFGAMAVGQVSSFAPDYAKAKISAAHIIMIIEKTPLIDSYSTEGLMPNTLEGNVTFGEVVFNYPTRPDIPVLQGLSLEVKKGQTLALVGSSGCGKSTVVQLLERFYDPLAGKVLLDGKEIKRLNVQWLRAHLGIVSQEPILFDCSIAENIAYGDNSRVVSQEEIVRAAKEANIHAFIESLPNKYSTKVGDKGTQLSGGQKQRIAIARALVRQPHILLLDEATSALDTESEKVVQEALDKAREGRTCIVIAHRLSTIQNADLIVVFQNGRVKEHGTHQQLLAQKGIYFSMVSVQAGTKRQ
# T1 sequence (P33261 whole entry): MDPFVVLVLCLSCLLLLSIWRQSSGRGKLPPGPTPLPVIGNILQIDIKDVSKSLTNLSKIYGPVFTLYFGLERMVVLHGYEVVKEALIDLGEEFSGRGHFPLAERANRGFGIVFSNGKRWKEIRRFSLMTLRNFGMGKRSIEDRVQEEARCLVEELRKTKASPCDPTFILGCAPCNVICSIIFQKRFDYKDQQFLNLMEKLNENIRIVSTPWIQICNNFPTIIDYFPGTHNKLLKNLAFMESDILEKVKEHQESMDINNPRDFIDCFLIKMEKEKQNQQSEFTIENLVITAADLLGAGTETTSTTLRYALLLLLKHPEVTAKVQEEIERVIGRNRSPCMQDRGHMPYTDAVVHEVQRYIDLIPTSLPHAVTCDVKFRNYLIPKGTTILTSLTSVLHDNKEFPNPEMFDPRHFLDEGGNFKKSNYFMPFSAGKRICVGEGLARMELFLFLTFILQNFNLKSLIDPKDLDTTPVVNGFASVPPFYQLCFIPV
compound,measurement,setting,value
CN1CCC(COc2cnc(-c3cccc(Cn4nc(-c5cccc(C#N)c5)ccc4=O)c3)nc2)CC1 [tepotinib],Potential for time-dependent inhibition,CYP2C19; S-Mephenytoin 4-hydroxylation,Little or No
same,IC50,"CYP2C19; S-Mephenytoin 4-hydroxylation, 30-min preincubation, read-out: Time-dependent inhibition IC50",29 µM
same,inhibition at 49.5 µM,"CYP2C19; S-Mephenytoin 4-hydroxylation, 30-min preincubation, read-out: Time-dependent inhibition, maximum inhibition at 49.5 µM",65%
same,inhibition at 49.5 µM,"CYP2C19; S-Mephenytoin 4-hydroxylation, zero-minute preincubation, read-out: Direct inhibition, maximum inhibition at 49.5 µM",64%
same,IC50,"CYP2C19; human liver microsomes, S-Mephenytoin 4-hydroxylation, zero-minute preincubation, read-out: Direct inhibition IC50",30 µM
same,Ki,"CYP2C19; human liver microsomes, read-out: Ki, CYP2C19-catalyzed probe substrate reaction",≥ 11 µM
same,Potential for time-dependent inhibition,CYP3A4/5 [1]; Midazolam 6β-hydroxylation,Little or No
same,Potential for time-dependent inhibition,CYP3A4/5 [1]; Nifedipine oxidation,Little or No
same,Potential for time-dependent inhibition,CYP3A4/5 [1]; Testosterone 1’-hydroxylation,Little or No
same,inhibition at 49.5 µM,"CYP3A4/5 [1]; both sexes, Midazolam 6β-hydroxylation, 30-min preincubation, read-out: Time-dependent inhibition, maximum inhibition at 49.5 µM",60%
same,IC50,"CYP3A4/5 [1]; both sexes, Midazolam 6β-hydroxylation, 30-min preincubation, read-out: Time-dependent inhibition IC50",33 µM
same,inhibition at 49.5 µM,"CYP3A4/5 [1]; both sexes, Midazolam 6β-hydroxylation, zero-minute preincubation, read-out: Direct inhibition, maximum inhibition at 49.5 µM",66%
same,inhibition at 49.5 µM,"CYP3A4/5 [1]; both sexes, Nifedipine oxidation, 30-min preincubation, read-out: Time-dependent inhibition, maximum inhibition at 49.5 µM",71%
same,IC50,"CYP3A4/5 [1]; both sexes, Nifedipine oxidation, 30-min preincubation, read-out: Time-dependent inhibition IC50",25 µM
same,inhibition at 49.5 µM,"CYP3A4/5 [1]; both sexes, Nifedipine oxidation, zero-minute preincubation, read-out: Direct inhibition, maximum inhibition at 49.5 µM",64%
same,inhibition at 49.5 µM,"CYP3A4/5 [1]; both sexes, Testosterone 1’-hydroxylation, 30-min preincubation, read-out: Time-dependent inhibition, maximum inhibition at 49.5 µM",59%
same,IC50,"CYP3A4/5 [1]; both sexes, Testosterone 1’-hydroxylation, 30-min preincubation, read-out: Time-dependent inhibition IC50",37 µM
same,inhibition at 49.5 µM,"CYP3A4/5 [1]; both sexes, Testosterone 1’-hydroxylation, zero-minute preincubation, read-out: Direct inhibition, maximum inhibition at 49.5 µM",62%
same,IC50,"CYP3A4/5 [1]; both sexes, human liver microsomes, Midazolam 6β-hydroxylation, zero-minute preincubation, read-out: Direct inhibition IC50",25 µM
same,IC50,"CYP3A4/5 [1]; both sexes, human liver microsomes, Nifedipine oxidation, zero-minute preincubation, read-out: Direct inhibition IC50",26 µM
same,IC50,"CYP3A4/5 [1]; both sexes, human liver microsomes, Testosterone 1’-hydroxylation, zero-minute preincubation, read-out: Direct inhibition IC50",31 µM
same,IC50,"CYP3A4/5 [1]; both sexes, in vitro, abstract summary, read-out: IC50, direct or time-dependent CYP3A4/5 inhibition",> 15 µM
same,Ki,"CYP3A4/5 [1]; both sexes, human liver microsomes, read-out: Ki, CYP3A4/5-catalyzed probe substrate reactions",≥ 11 µM
same,Direct inhibition of CYP3A4/5 (in words),CYP3A4/5 [1]; in vitro,weak direct inhibitors
same,Induction of CYP3A4/5 activity (in words),CYP3A4/5 [2]; in vitro,did not induce
same,Induction of CYP3A4/5 activity,"CYP3A4/5 [2]; primary human hepatocyte cultures, enzyme activity quantification (testosterone 6β-hydroxylation)",less than 40 % of positive control
same,Inhibition of P-gp-mediated efflux transport of dabigatran etexilate (in words),P-gp [3],weak inhibitor
same,Tmax,[4]; Median steady state Tmax,8 h
same,Tmax,"[4]; Steady state Tmax, range",2 to 24 h
same,IC50,"P-gp [5]; Caco-2 cell monolayers, [3H]-digoxin probe substrate, read-out: Apparent IC50, P-gp inhibition",0.41 µM
same,[I]/IC50 ratio (intestinal),P-gp [5]; [6],8917
same,[I]/IC50 ratio (systemic),P-gp [5]; [6],0.39
